Reference: patent US6849409B2, “Cellular kinases involved in Cytomegalovirus infection and their inhibition” (Axxima Pharmaceuticals AG, priority 2000, dated 2005)

Legend:
HCMV = HCMV inhibition (virus replication assay, plaque assay, GFP infection assay or indirect immunofluorescence analysis); assay type: cell-based; conditions: Human betaherpesvirus 5, read-out: IC50 HCMV
Protocol: (§1) To perform initial tests for compounds that inhibit RICK activity in a cellular assay, RICK was transiently overexpressed in HEK-293 cells, immunoprecipitated and incubated with different concentrations of test compounds before in-vitro kinase assays were performed (Example 10). According to the method for identifying compounds useful for inhibiting the cellular kinase RICK and therefore useful for treating and/or preventing Cytomegalovirus infection and/or diseases associated with Cytomegalovirus infection, a test compound is contacted with the cellular kinase RICK according to the RICK assay protocol disclosed in example 10. The test compound dissolved in DMSO is added to the RICK assay solution at concentrations between 100 nM and 50 μM. Thereafter, radioactively labeled ATP is added and kinase activity of RICK is determined by detecting the autophosphorylation of RICK via radioactivity measurement. The five compounds listed in the following Table 1 were identified using said method. […] The IC50 values of HCMV inhibition were obtained by the use of at least one assay protocol selected from a) virus replication assay, b) plaque assay, c) GFP (Green Fluorescent Protein) infection assay, and d) indirect immunofluorescence analysis as disclosed in example 12. Thus, the five compounds A to E mentioned below and/or pharmaceutically acceptable salts thereof can be used as inhibitors of the cellular protein kinase RICK and as pharmaceutically active compounds for the treatment and/or prophylaxis of HCMV infection. Furthermore, these compounds are suitable for the manufacture of a pharmaceutical composition for prophylaxis and/or treatment of Cytomegalovirus infection and/or diseases associated therewith.
(§2) To perform initial tests for compounds that inhibit RIP activity in a cellular assay, RIP was transiently overexpressed in HEK-293 cells, immunoprecipitated and incubated with different concentrations of test compounds before in-vitro kinase assays were performed (Example 11). In order to identify compounds suitable for inhibiting the cellular kinase RIP and, thus, suitable for treating and/or preventing Cytomegalovirus infection and/or diseases associated with Cytomegalovirus infection the inventive method according to claim 1 was used. A test compound was contacted with the cellular kinase RIP according to the RIP assay protocoll disclosed in example 11. The test compound dissolved in DMSO is added to the RIP assay solution at concentrations between 100 nM and 50 μM. Radioactively labeled ATP was used as co-substrate of RIP and auto-phosphorylation was detected via measurement of incorporation of radioactivity into the RIP protein. Thereafter, phosphorylation rates with and without test compounds were compared. […] The IC50 values of HCMV inhibition were obtained by the use of at least one assay protocol selected from a) virus replication assay, b) plaque assay, c) GFP infection assay, and d) indirect immunofluorescence analysis as disclosed in example 12.
Primary human foreskin fibroblasts (HFF) were cultivated in MEM containing 5% (v/v) fetal calf serum. Infection analysis was restricted to cell passage numbers below twenty. Human cytomegalovirus strain AD169 (ATCC) was grown in HFF cells and quantitated for infectivity by the plaque reduction assay. Aliquots were stored at −80° C.
HFF cells were cultivated in 12-well plates to 90-100% confluency and used for infection with dilutions of virus-positive cell culture supernatants. Virus inoculation was performed for 90 min at 37° C. under occasional shaking before virus was removed and the cell layers were rinsed with PBS. Overlays of MEM 5% (v/v) fetal calf serum and 0.3% (w/v) agarose were added to each well and all samples were incubated at 37° C. in a 5% CO2 atmosphere for approximately 12 days. Finally, overlays were removed and the formation of foci was visualized by staining with 1% crystal violet in 20% ethanol for 1 min. […]

RIP = target: T1, RIP (Homo sapiens, UniProt Q13546); test: RIP-kinase assay (autophosphorylation of immunoprecipitated RIP-HA, radioactively labeled ATP); assay type: biochemical; conditions: in-vitro kinase assay, compound 100 nM to 50 μM, 30 min at 30° C.
T1 construct: made in house; host or cells: HEK 293 (transient transfection, pcDNA3), immunoprecipitated with anti-HA antibody
T1 sequence (Q13546 1-671 A438V): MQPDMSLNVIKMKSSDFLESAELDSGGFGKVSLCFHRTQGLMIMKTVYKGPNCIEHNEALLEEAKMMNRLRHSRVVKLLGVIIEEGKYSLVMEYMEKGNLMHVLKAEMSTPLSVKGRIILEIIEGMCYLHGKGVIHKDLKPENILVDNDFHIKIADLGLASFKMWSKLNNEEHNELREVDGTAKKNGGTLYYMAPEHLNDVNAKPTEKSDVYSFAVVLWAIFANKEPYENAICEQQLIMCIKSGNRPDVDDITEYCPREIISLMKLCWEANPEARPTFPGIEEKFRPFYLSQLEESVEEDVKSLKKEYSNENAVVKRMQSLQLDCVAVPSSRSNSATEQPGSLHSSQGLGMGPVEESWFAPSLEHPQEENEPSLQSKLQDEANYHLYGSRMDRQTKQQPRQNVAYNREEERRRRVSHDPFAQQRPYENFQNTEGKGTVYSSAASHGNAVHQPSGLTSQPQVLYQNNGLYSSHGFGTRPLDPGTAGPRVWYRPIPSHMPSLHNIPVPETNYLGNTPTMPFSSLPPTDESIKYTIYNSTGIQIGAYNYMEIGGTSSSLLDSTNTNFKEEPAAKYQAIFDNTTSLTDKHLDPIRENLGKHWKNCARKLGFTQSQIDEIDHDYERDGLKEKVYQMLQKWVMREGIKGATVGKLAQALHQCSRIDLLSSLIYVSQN
Protocol: as §2
To obtain active RIP kinase the human RIP-cDNA was fused with a DNA sequence coding for the HA-tag and cloned into the eucaryotic expression vector pcDNA3 (Invitrogene). This construct was transfected into human embryonic kidney cells (HEK 293) via the calcium-phosphate DNA co-precipitation method. Two days after transfection cells were washed with PBS and harvested and lysed in lysis-buffer (150 mM NaCl, 1 mM EDTA, 1% Tritron X-100, 20 mM Tris-HCl pH 7.5 and freshly added: 30 mM NaF, 10 μg/ml Aprotinine, 10 μg/ml Leupeptine, 2 mM Na-pyrophosphate). […] Phosphorylation products were analyzed by SDS-PAGE and autoradiography (x-ray film and phosphor imager).

RICK = target: T2, RICK (Homo sapiens, UniProt O43353); test: RICK-kinase assay (autophosphorylation of immunoprecipitated RICK-HA, radioactively labeled ATP); assay type: biochemical; conditions: in-vitro kinase assay, compound 100 nM to 50 μM, 30 min at 30° C.
T2 construct: made in house; host or cells: HEK 293 (transient transfection, pcDNA3), immunoprecipitated with anti-HA antibody
Protocol: as §1
To obtain active RICK kinase the human RICK-cDNA was fused with a DNA sequence coding for the HA-tag and cloned into the eucaryotic expression vector pcDNA3 (Invitrogene). This construct was transfected into human embryonic kidney cells (HEK 293) via the calcium-phosphate co-precipitation method. One day after transfection medium was replaced by fetal calf serurum-free medium and two days after transfection cells were washed with PBS and harvested and lysed in RIPA-buffer (150 mM NaCl, 1 mM EDTA, 1% Tritron X-100, 1% Na-desoxycholate, 0.1% SDS, 10 mM Tris-HCl pH 7.5). The RICK-HA fusion protein was immunoprecipitated from 250 μl cleared lysate (i.e. lysate of one well of a six-well plate) utilizing an anti-HA antibody from Roche Pharmaceuticals and Protein A sepharose. After addition of 500 μl of HNTG-buffer (50 mM HEPES pH 7.5, 150 mM NaCl, 1 mM EDTA, 10% glycerine, 0.1% Triton X-100) the sample was rotated for 3 hrs at 4° C. After washing the immunoprecipitate twice with 0.5 ml HNTG-buffer and twice with 0.5 ml assay-buffer (25 mM Tris-HCl pH 7.5, 3 mM MgCl2, 0.5 mM MnCl2, 0.5 mM DTT and 50 mM NaCl), the kinase reaction was performed directly on the beads in 40 μl assay buffer containing 2.5 μCi γ[^33P]-ATP and various concentrations (between 100 nM and 50 μM) of compounds of Table 1. After 30 min at 30° C., the reaction was stopped by addition of 40 μl 3×Laemmli-buffer (16% glycerol, 1.01M β-mercaptoethanol, 5% SDS, 200 mM Tris/HCl pH 6.8, 8% bromphenolblue). Phosphorylation products were analyzed by SDS-PAGE and auroradiography (x-ray film and phosphor imager).

T2 sequence (O43353 whole entry): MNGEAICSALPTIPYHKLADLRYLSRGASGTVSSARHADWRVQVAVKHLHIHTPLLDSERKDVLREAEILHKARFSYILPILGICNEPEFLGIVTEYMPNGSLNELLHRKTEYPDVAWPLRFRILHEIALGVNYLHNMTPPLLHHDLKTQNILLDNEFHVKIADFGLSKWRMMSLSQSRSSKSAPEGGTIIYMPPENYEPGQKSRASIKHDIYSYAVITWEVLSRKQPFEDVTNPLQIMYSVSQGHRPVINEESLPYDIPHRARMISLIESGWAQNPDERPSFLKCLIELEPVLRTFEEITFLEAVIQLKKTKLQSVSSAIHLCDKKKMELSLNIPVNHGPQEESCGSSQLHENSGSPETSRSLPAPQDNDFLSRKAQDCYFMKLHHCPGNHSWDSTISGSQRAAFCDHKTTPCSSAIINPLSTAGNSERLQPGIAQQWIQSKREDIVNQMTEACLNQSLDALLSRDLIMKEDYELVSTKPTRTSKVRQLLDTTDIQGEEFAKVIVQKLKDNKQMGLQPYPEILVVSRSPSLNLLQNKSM

| Structure (SMILES) | IC50 (HCMV) | IC50 (RIP) | IC50 (RICK) |
| --- | --- | --- | --- |
| O=C1NC(=O)c2ccccc2/C1=C/c1ccnc2ccccc12 [Compound H, 4-Quinolin-4-ylmethylene-4H-isoquinoline-1,3-dione] | 12 µM | 5 µM | – |
| COc1cc2ncnc(Nc3cccc(Br)c3)c2cc1OC [Compound E, (3-Bromophenyl)-(6,7-dimethoxyquinazolin-4-yl)-amine] | 5.7 µM | – | 0.5 µM |
| CN1CCN(CCCNc2ncc3cc(-c4c(Cl)cccc4Cl)c(=O)n(C)c3n2)CC1 [Compound C, 6-(2,6-Dichlorophenyl)-8-methyl-2-[3-(4-methylpiperazin-1-yl)-propylamino]-8H-pyrido[2,3-d]pyrimidin-7-one] | 6.2 µM | – | 1 µM |
| O=C1Nc2ccc(Cl)cc2/C1=C/c1ccc[nH]1 [Compound G, 5-Cloro-3-(1H-pyrrol-2-ylmethylene)-1,3-dihydroindol-2-one] | 15 µM | 10 µM | – |
| O=c1c(O)c(-c2ccc(O)c(O)c2)oc2cc(O)cc(O)c12 [Compound F, 2-(3,4-Dihydroxyphenyl)-3,5,7-trihydroxychromen-4-one] | 15 µM | 5 µM | – |
| Cn1c(=O)c(-c2c(Cl)cccc2Cl)cc2cnc(NCCCN3CCOCC3)nc21 [Compound A, 6-(2,6-Dichlorophenyl)-8-methyl-2-(3-morpholin-4-yl-propylamino)-8H-pyrido[2,3-d]pyrimidin-7-one] | 6.8 µM | – | 1 µM |
| Cn1c(=O)c(-c2ccccc2)cc2cnc(Nc3ccncc3)nc21 [Compound B, 8-methyl-6-phenyl-2-(pyridin-4-yl-amino)-8H-pyrido[2,3-d]pyrimidin-7-one] | 1.4 µM | – | 0.5 µM |
| CCOc1cc2ncnc(Nc3cccc(Br)c3)c2cc1OCC [Compound D, (3-Bromophenyl)-(6,7-diethoxyquinazolin-4-yl)-amine] | 7.6 µM | – | 0.5 µM |
